Measurements: US7049437B2, “Synthetic process and crystal form of condensed imidazopyridine derivatives” (Shionogi & Co., Ltd., priority 2000, dated 2006)
Counter-ions that a name gives are not always drawn.

Columns and labels:
[1] = Stability to light (fluorescent lamp exposure; appearance and HPLC remaining rate); format: physicochemical; settings: for appearance / remaining rate (%) / appearance change under light exposure: phosphate monohydrate; for remaining rate (%): HPLC content vs reference kept at −20° C.; for appearance change under light exposure: summary of Table 2
Protocol: In the following Experiments, contents of Compound (I) were determined by HPLC under the following conditions. • Device: WATERS 510, 481, 712 WISP, 741, FD20A or WATERS 510, 486, 712 WISP, 741, FD20A • Column: YMC-packed column AM-302 S-5 120A ODS (4.6 mm φ×150 mm) • Column temperature: room temperature • Mobile phase: methanol/water/TFA=200/800/1 (v/v) • Flow rate: 1.0 ml/min • Wave length: 230 nm • Concentration: 5–85 μg/ml • Injection Volume: 15 μl
After samples were prepared in the same manner of Experiment 1 and sealed, they were kept under 1800 Lux exposure (16 hours exposure per day of a fluorescent lamp, 28800 Lux*hr/day) or under 10000 Lux exposure (continuous exposure of a fluorescent lamp, 240000 Lux*hr/day, average temperature 30±3° C.). As a standard reference sample, each of crystals was put in a sealed container and kept at −20° C. The content of crystals were determined by the absolute calibration curve method using HPLC under the above conditions.

[2] = Stability to heat (crystals kept sealed at 40° C., relative humidity 75%); format: physicochemical; settings: relative humidity of 75%, 6 months, sealed glass container, phosphate monohydrate
Protocol: Prism crystals and needle crystals of Compound (Ia) were used for samples. About 25 mg of each crystal was put in a small glass container with polyethylene cap. Containers were capped, sealed with PARAFILM and kept at 40° C., relative humidity of 75% for 6 months.

Structure (SMILES)	appearance ([1]; 1800 Lux (16 hours exposure per day), 3 months)	remaining rate (%) ([1]; 1800 Lux, 1 month)	remaining rate (%) ([1]; 1800 Lux, 2 months)	remaining rate (%) ([1]; 1800 Lux, 3 months)	remaining rate (%) ([1]; 1800 Lux, 4 months)	appearance ([1]; 10000 Lux (continuous exposure, 30±3° C.), 2 weeks)	remaining rate (%) ([1]; 10000 Lux, 1 week)	remaining rate (%) ([1]; 10000 Lux, 2 weeks)	remaining rate (%) ([1]; 10000 Lux, 3 weeks)	appearance change under light exposure [1]	appearance transition [2]	appearance ([1]; 1800 Lux (16 hours exposure per day), 1 month)	appearance ([1]; 10000 Lux (continuous exposure, 30±3° C.), 1 week)	appearance ([1]; 10000 Lux (continuous exposure, 30±3° C.), 3 weeks)	remaining rate under light exposure ([1]; after 3 months)	melting point
c1cc(-c2nc3c4c(ncc3[nH]2)CCOC4)no1 [Prism crystals, 2-(3-isoxazolyl)-3,6,7,9-tetrahydroimidazo[4,5-d]pyrano[4,3-b]pyridine phosphate monohydrate]	− or ±	100.0%	99.9%	100.1%	100.1%	± or +	99.5%	99.7%	99.2%	scarcely changed appearance	not observed appearance transition					
c1cc(-c2nc3c4c(ncc3[nH]2)CCOC4)no1 [Needle crystals, 2-(3-isoxazolyl)-3,6,7,9-tetrahydroimidazo[4,5-d]pyrano[4,3-b]pyridine phosphate monohydrate]		98.6%	98.3%	96.9%	97.0%		99.3%	98.0%	97.4%	changed the color to yellow	changed its color to pale yellow	± or +	± or +	+ or ++	decreased	
c1cc(-c2nc3c4c(ncc3[nH]2)CCOC4)no1 (hydrate or solvate) [Example 1, 2-(3-isoxazolyl)-3,6,7,9-tetrahydroimidazo[4,5-d]pyrano[4,3-b]pyridine]																> 300 °C
c1cc(-c2nc3c4c(ncc3[nH]2)CCOC4)no1 (as salt: phosphate) (hydrate or solvate) [Needle crystals, 2-(3-isoxazolyl)-3,6,7,9-tetrahydroimidazo[4,5-d]pyrano[4,3-b]pyridine phosphate monohydrate]																234 to 236 °C
